Reference: ChEMBL document CHEMBL1201862, “PubChem BioAssay data set” (2004)
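These data come from cells grown in 96-well plates and exposed to compound for 48 hours at five concentrations. GI50 marks 50% less growth.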 Calls of active or inactive are those of the source. Rule as the data show it: active = GI50 up to about 1.1 µM and inactive = higher.

Columns and labels:
Experiment in all cases: DTP human tumour cell line panel, 48 h
SF-539 = system: SF-539
SW-620 = system: SW-620
ACHN = system: ACHN
PC-3 = system: PC-3
Hs-578T = system: Hs-578T
SK-OV-3 = system: SK-OV-3
K562 = system: K562
SNB-19 = system: SNB-19
COLO 205 = system: COLO 205
NCI/ADR-RES = system: NCI/ADR-RES
SK-MEL-2 = system: SK-MEL-2
Malme-3M = system: Malme-3M
MOLT-4 = system: MOLT-4
IGROV-1 = system: IGROV-1
LOX IMVI = system: LOX IMVI
RPMI-8226 = system: RPMI-8226
SK-MEL-28 = system: SK-MEL-28
TK-10 = system: TK-10
EKVX = system: EKVX
CAKI-1 = system: CAKI-1

Measured: GI50

O=C(NC(Cc1c[nH]c2ccccc12)C(=O)Nc1ccc(Br)cc1)OCc1ccccc1 (stereo not given)
inactive: SF-539 15.3 µM | SW-620 16 µM | ACHN 10.2 µM | PC-3 10.4 µM | Hs-578T 18.9 µM | SK-OV-3 14.1 µM | K562 6.82 µM | SNB-19 21.1 µM | COLO 205 12.1 µM | NCI/ADR-RES 12.1 µM | SK-MEL-2 6.56 µM | Malme-3M 11.4 µM | MOLT-4 4.53 µM | IGROV-1 9.12 µM | LOX IMVI 9.06 µM | RPMI-8226 6.38 µM | SK-MEL-28 14.3 µM | TK-10 14.9 µM | EKVX 6.59 µM | CAKI-1 5.27 µM

O=C(NCCCCCCCN1CCCCCCC1)C(C1CCCCC1)C1CCCCC1
inactive: SF-539 11.2 µM | SW-620 12.1 µM | ACHN 12 µM | PC-3 8.57 µM | Hs-578T 21.7 µM | SK-OV-3 11.3 µM | K562 2.77 µM | SNB-19 14.3 µM | COLO 205 2.81 µM | NCI/ADR-RES 9.98 µM | SK-MEL-2 9.08 µM | Malme-3M 3.34 µM | MOLT-4 1.19 µM | IGROV-1 12.3 µM | LOX IMVI 12 µM | RPMI-8226 2.56 µM | SK-MEL-28 6.08 µM | TK-10 12.9 µM | EKVX 4.4 µM | CAKI-1 7.14 µM

CSc1ncc2c(C#N)c3sc4ccccc4n3c(=O)c2n1
inactive: SF-539 40.1 µM | SW-620 22 µM | ACHN > 100 µM | PC-3 > 100 µM | Hs-578T 24.6 µM | SK-OV-3 80.7 µM | K562 > 100 µM | SNB-19 37.8 µM | COLO 205 > 100 µM | NCI/ADR-RES 38.8 µM | SK-MEL-2 > 100 µM | Malme-3M > 100 µM | MOLT-4 > 100 µM | IGROV-1 > 100 µM | LOX IMVI > 100 µM | RPMI-8226 > 100 µM | SK-MEL-28 > 100 µM | TK-10 61.1 µM | EKVX > 100 µM | CAKI-1 73.8 µM

O=C(CNc1c(Cl)cccc1Cl)NC1C=Cc2ccc(S(=O)(=O)Nc3c(Cl)cccc3Cl)cc2C1=O (stereo not given)
inactive: SF-539 > 100 µM | SW-620 > 100 µM | ACHN > 100 µM | PC-3 23.7 µM | Hs-578T 6.71 µM | SK-OV-3 > 100 µM | K562 > 100 µM | SNB-19 > 100 µM | COLO 205 > 100 µM | NCI/ADR-RES > 100 µM | SK-MEL-2 56.8 µM | Malme-3M > 100 µM | MOLT-4 > 100 µM | IGROV-1 2.4 µM | LOX IMVI 88.7 µM | RPMI-8226 > 100 µM | SK-MEL-28 > 100 µM | TK-10 > 100 µM | EKVX 17.7 µM | CAKI-1 47.5 µM

CCN(CC)CCN1c2ccccc2Sc2ccc3ccccc3c21
inactive: SF-539 13.6 µM | SW-620 11.4 µM | ACHN 13.7 µM | PC-3 6.73 µM | Hs-578T 13.5 µM | SK-OV-3 15.8 µM | K562 4.66 µM | SNB-19 15.3 µM | COLO 205 4.75 µM | NCI/ADR-RES 10.6 µM | SK-MEL-2 14.3 µM | Malme-3M 15.4 µM | MOLT-4 3.74 µM | IGROV-1 10.2 µM | LOX IMVI 7.52 µM | RPMI-8226 3.33 µM | SK-MEL-28 7.46 µM | TK-10 1.67 µM | EKVX 6.37 µM | CAKI-1 8.89 µM

Clc1ccc(-c2cn3c(nc4ccccc43)c(-c3ccccc3)n2)cc1
inactive: SF-539 22.3 µM | SW-620 43.3 µM | ACHN 29.6 µM | PC-3 18.7 µM | Hs-578T 12.3 µM | SK-OV-3 11.6 µM | K562 > 84.7 µM | SNB-19 13.9 µM | COLO 205 40.2 µM | NCI/ADR-RES 34.9 µM | SK-MEL-2 14.1 µM | Malme-3M 23.1 µM | MOLT-4 > 100 µM | IGROV-1 24 µM | LOX IMVI 32 µM | RPMI-8226 > 100 µM | SK-MEL-28 39.8 µM | TK-10 22 µM | EKVX 64.3 µM | CAKI-1 16.3 µM

N#C/C(C(=S)NCc1ccccc1)=C(/N)N1CCCC1
inactive: SF-539 > 100 µM | SW-620 > 100 µM | ACHN > 100 µM | PC-3 > 100 µM | Hs-578T > 100 µM | SK-OV-3 > 100 µM | K562 > 100 µM | SNB-19 > 100 µM | COLO 205 > 100 µM | NCI/ADR-RES > 100 µM | SK-MEL-2 > 100 µM | Malme-3M > 100 µM | MOLT-4 > 100 µM | IGROV-1 > 100 µM | LOX IMVI > 100 µM | RPMI-8226 > 100 µM | SK-MEL-28 > 100 µM | TK-10 > 100 µM | EKVX > 100 µM | CAKI-1 > 100 µM

O=C(O)CCC1C(=O)C2CCN1CC2 (stereo not given)
inactive: SF-539 > 100 µM | SW-620 > 100 µM | ACHN > 100 µM | PC-3 > 100 µM | Hs-578T > 100 µM | SK-OV-3 > 100 µM | K562 > 100 µM | SNB-19 > 100 µM | COLO 205 > 100 µM | NCI/ADR-RES > 100 µM | SK-MEL-2 > 100 µM | Malme-3M > 100 µM | MOLT-4 > 100 µM | IGROV-1 > 100 µM | LOX IMVI > 100 µM | RPMI-8226 > 100 µM | SK-MEL-28 > 100 µM | TK-10 > 100 µM | EKVX > 100 µM | CAKI-1 > 100 µM
